The source of these data is patent publication US20250290014A1, “DETERGENT COMPOSITION” (Saraya Co., Ltd., priority 2022, published 2025).

For the series, the system named is human three-dimensional cultured epidermis model. Put plainly: Skin irritation of fatty acid alkali metal salts, OECD TG439 (Experimental Example 3). Format: cell-based. Conditions: 0.1 M fatty acid aqueous solution, 25 μL, 15 minutes exposure, N=3; ≤50% viability irritating. The procedure:
The skin irritation of alkali metal salts of various fatty acids (potassium laurate, potassium myristate, potassium palmitate, and potassium oleate) was evaluated by the following method based on OECD Test Guideline TG439. […]

For `CCCCCCCCCCCC(=O)[O-].[K+]` [lauric acid salt, potassium laurate], the “Skin irritation determination from cell viability (FIG. 3)” value was “irritating”.
